Holding throughout (assay): inhibition of tumour cell growth, NCI panel, 48 h
Experiment [1] deals with LOX IMVI melanoma.
The test system of experiment [2] is KM12 colon.
In experiment [3] the test system is MOLT-4 leukemia.
In experiment [4] the test system is UACC-62 melanoma.
The test system of experiment [5] is MCF7 breast.
The test system of experiment [6] is SF-539 CNS.
Experiment [7] concerns MDA-MB-231 breast.
For experiment [8], the system named is HS 578T breast.
Experiment [9] has as its system HL-60(TB) leukemia.
Experiment [10] deals with A549 NSCLC.

Each structure is given as a SMILES string.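 Results reflect a 48-hour exposure of cells in 96-well plates to compound at five concentrations. GI50: concentration for 50% inhibition of growth. The concentration for full growth arrest is given as TGI.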

Regarding `Nc1nc(Nc2ccccc2SSc2ccccc2Nc2nc(N)nc(C(Cl)(Cl)Cl)n2)nc(C(Cl)(Cl)Cl)n1`, the GI50 was 1.68 µM in experiment [1]; 4.05 µM in experiment [2]; 3.22 µM in experiment [3]; 2.94 µM in experiment [4]; 6.46 µM in experiment [5]; 11.2 µM in experiment [6]. The GI50 was 3.13 µM in [7], 5.44 µM in experiment [8], 2.55 µM in experiment [9] and 2.95 µM in experiment [10]. Further, the TGI in experiment [1] was 3.13 µM; in experiment [2], 28.9 µM; in experiment [3] it was 18.1 µM; in experiment [4], 11.4 µM; in experiment [5] it was 33 µM; in [6] it was 24.7 µM. The TGI in experiment [7] was 10.7 µM; in experiment [8], more than 100 µM; in experiment [9] it was 12.1 µM; in [10], 10.8 µM.
`CC(=O)NCc1cccc(C#Cc2cncnc2Nc2ccc(OCc3cccc(F)c3)c(Cl)c2)c1`: the GI50 was 9.44 µM in experiment [1]; 11.1 µM in experiment [2]; 7.42 µM in experiment [3]; 9.87 µM in experiment [4]; 9.18 µM in experiment [5]; more than 21.1 µM in [6]. Moreover, the GI50 in experiment [7] is more than 25 µM; in experiment [8] it was more than 22.4 µM; in [9] it was 7.76 µM; in [10] it was 6.47 µM. Besides, the TGI in experiment [1], in experiment [2], in [3], in experiment [4], in experiment [5] and in experiment [6] was more than 25 µM each time. Further, the TGI in experiment [7] is more than 25 µM; in experiment [8], more than 25 µM; in experiment [9] it was more than 22.5 µM; in experiment [10], more than 25 µM.
Turning to `COC(=O)c1cncc(/C=C/c2c(C)cc(O)cc2C)c1`, the GI50 in experiment [1] was 7.41 µM; in experiment [2], 7.76 µM; in experiment [3], 4.19 µM; in experiment [4] it was 7.71 µM; in [5], 11.5 µM; in experiment [6] it was 11 µM. Besides, the GI50 was 7.19 µM in experiment [7], 6.91 µM in [8], 2.25 µM in experiment [9] and more than 17.5 µM in [10]. Further, the TGI in experiment [1] was more than 18 µM; in [2], 24.6 µM; in [3] it was more than 20.1 µM; in experiment [4], more than 25 µM; in [5], more than 18.7 µM; in [6], more than 25 µM. The TGI is more than 23 µM in experiment [7], more than 25 µM in experiment [8], 5.96 µM in experiment [9] and more than 25 µM in experiment [10].
Take `COc1cc2nc(-c3cc(F)ccc3O)nc(N[C@@H]3CNC[C@H]3C(C)(C)O)c2cc1OC`: the GI50 in [1] is 1.46 µM; in experiment [2] it was 1.73 µM; in experiment [3], 2.09 µM; in experiment [4] it was 1.78 µM; in [5], 1.51 µM; in experiment [6] it was 1.55 µM. In addition, the GI50 was 1.23 µM in experiment [7], 1.72 µM in experiment [8], 1.78 µM in experiment [9] and 1.74 µM in experiment [10]. In addition, the TGI in experiment [1] is 2.87 µM; in experiment [2], 3.18 µM; in experiment [3], 4.7 µM; in experiment [4] it was 3.41 µM; in experiment [5], 3.07 µM; in [6], 3 µM. Besides, the TGI in experiment [7] amounted to 2.8 µM; in experiment [8] it was 5.74 µM; in experiment [9], 4.2 µM; in [10] it was 3.51 µM.
For `N#CCCN1C/C(=C/c2ccc(Cl)cc2)C(=O)/C(=C/c2ccc(Cl)cc2)C1`, the GI50 in experiment [1] is 0.303 µM; in experiment [2] it was 0.275 µM; in [3] it was 1.94 µM; in experiment [4], 1.8 µM; in [5], 0.42 µM; in [6], 1.32 µM. In addition, the GI50 in experiment [7] is 2.01 µM; in experiment [8] it was 2.9 µM; in experiment [9], 2.12 µM; in experiment [10] it was 1.89 µM. Further, the TGI in experiment [1] turned out to be 1.13 µM; in experiment [2], 0.841 µM; in [3], 8.39 µM; in [4], 4.1 µM; in experiment [5], 2.81 µM; in experiment [6], 2.74 µM. For the same compound, the TGI in experiment [7] is 7.44 µM; in experiment [8] it was 12.8 µM; in [9], 7.38 µM; in experiment [10] it was 10.4 µM.
Consider `C=CCN1CC(=O)N2[C@@H](Cc3ccc(O)cc3F)C(=O)N(Cc3cccc(N4CC(N5CCN(CC)CC5)C4)n3)C[C@@H]2N1C(=O)NCc1ccccc1`, for which the GI50 was 0.0339 µM in experiment [1]; 0.111 µM in experiment [2]; 0.0276 µM in experiment [3]; 0.0539 µM in experiment [4]; 0.524 µM in [5]; 0.0317 µM in experiment [6]. The GI50 in experiment [7] was 0.0216 µM; in experiment [8], 0.0279 µM; in experiment [9], 0.226 µM; in experiment [10], 0.0412 µM. Also, the TGI in experiment [1] was 0.584 µM; in [2], more than 100 µM; in experiment [4], 10.5 µM; in experiment [5] it was more than 100 µM; in [6] it was 0.288 µM; in experiment [7], 0.139 µM. Further, the TGI in [8] is 0.15 µM; in [9] it was 26.5 µM; in experiment [10], more than 100 µM.
Take `CCCCCO/N=C\c1c2c(O)c3c(O)c(C)c4c(c3c1O)C(=O)C(C)(O/C=C\C(OC)C(C)C(OC(C)=O)C(C)C(O)C(C)C(O)C(C)/C=C\C=C(\C)C(=O)N2)O4` (centres undefined): the GI50 in experiment [1] is 1.65 µM; in experiment [2] it was 1.64 µM; in experiment [3], 2.8 µM; in experiment [4] it was 1.39 µM; in [5] it was 1.71 µM; in [6], 1.98 µM. Also, the GI50 in [7] was 1.75 µM; in experiment [8], 1.69 µM; in [9] it was 2.92 µM; in experiment [10] it was 1.8 µM. Also, the TGI worked out at 3.01 µM in experiment [1]; 3 µM in [2]; 9.1 µM in experiment [3]; 2.71 µM in [4]; 3.54 µM in [5]; 3.86 µM in [6]. Besides, the TGI in [7] was 3.2 µM; in experiment [8], 4.2 µM; in experiment [9] it was 6.34 µM; in [10], 3.39 µM.
